Data on eight compounds can be found in ChEMBL document CHEMBL6074698, “Heteroaryl Glutarimides and Dihydrouracils as Cereblon Ligand Scaffolds for Molecular Glue Degrader Discovery” (ACS Med Chem Lett, 2024).

One data set in a line: in vitro. The conditions noted are these: human.
Data set [1] can be described thus: physchem. The settings on record: PBS, pH 7.4.
Data set [2] is described as follows: physchem. The conditions noted are these: DMEM buffer, pH 7.4.

A word on the half-life: it is the time in which the quantity being followed falls by half. High values mean slow loss, low ones fast loss. In general, logD refers to the decadic logarithm of the distribution of all forms, ionised or not, between an organic phase and buffer at a given pH. A low value points to a more hydrophilic compound. As to `O=C1CCC(c2ccccc2)C(=O)N1` (stereo not drawn), the half-life at 24 h in “in vitro” (MV4-11 cells) was above 24 h. Further, the logD in “physchem [1]” worked out at 0.6. `Nc1cccc2c1CN(C1CCC(=O)NC1=O)C2=O` (stereo not drawn) [LENALIDOMIDE]: the half-life at 24 h in the data set “in vitro” (MV4-11 cells) is 12 h. The same compound gave a half-life at 48 h in the data set “physchem [2]” of 0.9 h.

As for `O=C1CCC(c2ccc3[nH]ncc3c2)C(=O)N1` (stereo not drawn), the log distribution coefficient (logD) in the data set “physchem [1]” amounted to 0.3. Same read-out and setting: then `O=C1CCC(c2cccc3cc[nH]c23)C(=O)N1` (stereo not drawn), with 1.4; and `O=C1CCN(c2ccccc2)C(=O)N1`, with 0.3. As for `Nc1cccc2c1C(=O)N(C1CCC(=O)NC1=O)C2=O` (stereo not drawn) [POMALIDOMIDE], the half-life at 24 h in “in vitro” (mv4-11) was 12 h. The log distribution coefficient (logD) in the data set “physchem [1]” worked out at 1.3. Also, the half-life at 48 h in the data set “physchem [2]” is 0.4 h. Regarding `O=C1CCC(c2ccnc3[nH]ncc23)C(=O)N1` (stereo not drawn), the logD in the data set “physchem [1]” is -0.3. `O=C1CCC(N2C(=O)c3ccccc3C2=O)C(=O)N1` (stereo not drawn) [THALIDOMIDE] gave a half-life at 24 h in “in vitro” (MV4-11 cells) of 3.3 h. In “physchem [1]”, this compound displayed a pH-dependent lipophilicity (logD) of 0.7.
